What follows are molecules tested against T1, his-galectin-3 (Homo sapiens, UniProt P17931) (assay: TR-FRET assay (in vitro galectin-3 binding inhibitory activity test)). Settings: Table 2; compound at 20 μM; 60 nM his-galectin-3, 15 nM biotin-ASF; read-out: % Inhibitory activity (at 20 μM).
T1 construct: purchased Abcam
Procedure, shortened: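 Compound is premixed with his-galectin-3 (60 nM final), then biotin-ASF (15 nM), Tb anti-His antibody (2 nM) and streptavidin-d2 (20 nM) are added. After at least 3.5 hours at RT in HEPES/NaCl buffer with Tween 20 and BSA, TR-FRET is read at 615/665 nm. DMSO serves as the uninhibited control, ASF omission as background.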

T1 sequence (P17931 whole entry): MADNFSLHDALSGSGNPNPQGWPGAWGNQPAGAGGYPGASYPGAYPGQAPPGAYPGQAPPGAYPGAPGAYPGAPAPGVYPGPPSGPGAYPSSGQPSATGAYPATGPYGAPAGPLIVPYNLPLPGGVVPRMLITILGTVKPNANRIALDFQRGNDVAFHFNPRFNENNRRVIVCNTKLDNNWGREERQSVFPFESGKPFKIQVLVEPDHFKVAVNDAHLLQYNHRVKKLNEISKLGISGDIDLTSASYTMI

`O=C(c1ccc2ccccc2c1)N1CCC[C@]2(C1)O[C@H](CO)[C@H](O)[C@H](n1cc(-c3cc(F)c(F)c(F)c3)nn1)[C@H]2O` [Compound A186, ((2R,3R,4S,5R,6R)-3,5-dihydroxy-2-(hydroxymethyl)-4-(4-(3,4,5-trifluorophenyl)-1H-1,2,3-triazol-1-yl)-1-oxa-8-azaspiro[5.5]undecan-8-yl)(naphthalen-2-yl)methanone] and `O=C(c1cc2ccccc2s1)N1CCC[C@]2(C1)O[C@H](CO)[C@H](O)[C@H](n1cc(-c3cc(F)c(F)c(F)c3)nn1)[C@H]2O` [Compound A187, benzo[b]thiophen-2-yl((2R,3R,4S,5R,6R)-3,5-dihydroxy-2-(hydroxymethyl)-4-(4-(3,4,5-trifluorophenyl)-1H-1,2,3-triazol-1-yl)-1-oxa-8-azaspiro[5.5]undecan-8-yl)methanone] cannot be ordered by inhibition at 20 µM: under 25% for the first, under 25% for the second.

`O=C(c1ccccn1)N1CCC[C@]2(C1)O[C@H](CO)[C@H](O)[C@H](n1cc(-c3cc(F)c(F)c(F)c3)nn1)[C@H]2O` [Compound A188, ((2R,3R,4S,5R,6R)-3,5-dihydroxy-2-(hydroxymethyl)-4-(4-(3,4,5-trifluorophenyl)-1H-1,2,3-triazol-1-yl)-1-oxa-8-azaspiro[5.5]undecan-8-yl)(pyridin-2-yl)methanone] and `O=C(c1ccncc1)N1CCC[C@]2(C1)O[C@H](CO)[C@H](O)[C@H](n1cc(-c3cc(F)c(F)c(F)c3)nn1)[C@H]2O` [Compound A189, ((2R,3R,4S,5R,6R)-3,5-dihydroxy-2-(hydroxymethyl)-4-(4-(3,4,5-trifluorophenyl)-1H-1,2,3-triazol-1-yl)-1-oxa-8-azaspiro[5.5]undecan-8-yl)(pyridin-4-yl)methanone] cannot be ordered by inhibition at 20 µM: under 25% for the first, under 25% for the second.

`O=C(c1cncs1)N1CCC[C@]2(C1)O[C@H](CO)[C@H](O)[C@H](n1cc(-c3cc(F)c(F)c(F)c3)nn1)[C@H]2O` [Compound A190, ((2R,3R,4S,5R,6R)-3,5-dihydroxy-2-(hydroxymethyl)-4-(4-(3,4,5-trifluorophenyl)-1H-1,2,3-triazol-1-yl)-1-oxa-8-azaspiro[5.5]undecan-8-yl)(thiazol-5-yl)methanone] and `OC[C@H]1O[C@@]2(CCCN(c3ccccc3)C2)[C@H](O)[C@@H](n2cc(-c3cc(F)c(F)c(F)c3)nn2)[C@H]1O` [Compound A191, (2R,3R,4S,5R,6R)-2-(hydroxymethyl)-8-phenyl-4-(4-(3,4,5-trifluorophenyl)-1H-1,2,3-triazol-1-yl)-1-oxa-8-azaspiro[5.5]undecane-3,5-diol] cannot be ordered by inhibition at 20 µM: under 25% for the first, under 25% for the second.

`O=C(N[C@@H]1CCO[C@]12O[C@H](CO)[C@H](O)[C@H](n1cc(-c3cc(F)c(F)c(F)c3)nn1)[C@H]2O)c1ccc2c(Br)cccc2c1` [Compound A192, 5-bromo-N-((4R,5S,7R,8R,9S,10R)-8,10-dihydroxy-7-(hydroxymethyl)-9-(4-(3,4,5-trifluorophenyl)-1H-1,2,3-triazol-1-yl)-1,6-dioxaspiro[4.5]decan-4-yl)-2-naphthamide] and `O=C(N[C@@H]1CCO[C@]12O[C@H](CO)[C@H](O)[C@H](n1cc(-c3cc(F)c(F)c(F)c3)nn1)[C@H]2O)c1ccc2c(Cl)cccc2c1` [Compound A195, 5-chloro-N-((4R,5S,7R,8R,9S,10R)-8,10-dihydroxy-7-(hydroxymethyl)-9-(4-(3,4,5-trifluorophenyl)-1H-1,2,3-triazol-1-yl)-1,6-dioxaspiro[4.5]decan-4-yl)-2-naphthamide] fall in the same range of inhibition at 20 µM: 25 to 50% for the first, 25 to 50% for the second.

First: O=C(N[C@@H]1CCO[C@]12O[C@H](CO)[C@H](O)[C@H](n1cc(-c3cc(F)c(F)c(F)c3)nn1)[C@H]2O)c1ccc2ccccc2c1Br [Compound A193, 1-bromo-N-((4R,5S,7R,8R,9S,10R)-8,10-dihydroxy-7-(hydroxymethyl)-9-(4-(3,4,5-trifluorophenyl)-1H-1,2,3-triazol-1-yl)-1,6-dioxaspiro[4.5]decan-4-yl)-2-naphthamide]
Second: O=C(N[C@@H]1CCO[C@]12O[C@H](CO)[C@H](O)[C@H](n1cc(-c3cc(F)c(F)c(F)c3)nn1)[C@H]2O)c1cc2ccccc2cc1Cl [Compound A201, 3-chloro-N-((4R,5S,7R,8R,9S,10R)-8,10-dihydroxy-7-(hydroxymethyl)-9-(4-(3,4,5-trifluorophenyl)-1H-1,2,3-triazol-1-yl)-1,6-dioxaspiro[4.5]decan-4-yl)-2-naphthamide]
The inhibition at 20 µM of the first is lower: 50 to 75% for the first, over 75% for the second.

First: O=C(N[C@@H]1CCO[C@]12O[C@H](CO)[C@H](O)[C@H](n1cc(-c3cc(F)c(F)c(F)c3)nn1)[C@H]2O)c1cccc2scnc12 [Compound A194, N-((4R,5S,7R,8R,9S,10R)-8,10-dihydroxy-7-(hydroxymethyl)-9-(4-(3,4,5-trifluorophenyl)-1H-1,2,3-triazol-1-yl)-1,6-dioxaspiro[4.5]decan-4-yl)benzo[d]thiazole-4-carboxamide]
Second: O=C(N[C@@H]1CCO[C@]12O[C@H](CO)[C@H](O)[C@H](n1cc(-c3cc(F)c(F)c(F)c3)nn1)[C@H]2O)c1cccc2sccc12 [Compound A198, N-((4R,5S,7R,8R,9S,10R)-8,10-dihydroxy-7-(hydroxymethyl)-9-(4-(3,4,5-trifluorophenyl)-1H-1,2,3-triazol-1-yl)-1,6-dioxaspiro[4.5]decan-4-yl)benzo[b]thiophene-4-carboxamide]
The inhibition at 20 µM of the first is lower: 50 to 75% for the first, over 75% for the second.

`O=C(N[C@@H]1CCO[C@]12O[C@H](CO)[C@H](O)[C@H](n1cc(-c3cc(F)c(F)c(F)c3)nn1)[C@H]2O)c1ccc2sccc2c1` [Compound A196, N-((4R,5S,7R,8R,9S,10R)-8,10-dihydroxy-7-(hydroxymethyl)-9-(4-(3,4,5-trifluorophenyl)-1H-1,2,3-triazol-1-yl)-1,6-dioxaspiro[4.5]decan-4-yl)benzo[b]thiophene-5-carboxamide] and `O=C(N[C@@H]1CCO[C@]12O[C@H](CO)[C@H](O)[C@H](n1cc(-c3cc(F)c(F)c(F)c3)nn1)[C@H]2O)c1nsc2cc(Br)ccc12` [Compound A197, 6-bromo-N-((4R,5S,7R,8R,9S,10R)-8,10-dihydroxy-7-(hydroxymethyl)-9-(4-(3,4,5-trifluorophenyl)-1H-1,2,3-triazol-1-yl)-1,6-dioxaspiro[4.5]decan-4-yl)benzo[d]isothiazole-3-carboxamide] fall in the same range of inhibition at 20 µM: 50 to 75% for the first, 50 to 75% for the second.

First: O=C(N[C@@H]1CCO[C@]12O[C@H](CO)[C@H](O)[C@H](n1cc(-c3cc(F)c(F)c(F)c3)nn1)[C@H]2O)c1noc2cc(Cl)ccc12 [Compound A199, 6-chloro-N-((4R,5S,7R,8R,9S,10R)-8,10-dihydroxy-7-(hydroxymethyl)-9-(4-(3,4,5-trifluorophenyl)-1H-1,2,3-triazol-1-yl)-1,6-dioxaspiro[4.5]decan-4-yl)benzo[d]isoxazole-3-carboxamide]
Second: O=C(N[C@@H]1CCO[C@]12O[C@H](CO)[C@H](O)[C@H](n1cc(-c3cc(F)c(F)c(F)c3)nn1)[C@H]2O)c1cnc2sccn12 [Compound A200, N-((4R,5S,7R,8R,9S,10R)-8,10-dihydroxy-7-(hydroxymethyl)-9-(4-(3,4,5-trifluorophenyl)-1H-1,2,3-triazol-1-yl)-1,6-dioxaspiro[4.5]decan-4-yl)imidazo[2,1-b]thiazole-5-carboxamide]
The inhibition at 20 µM of the first is lower: 25 to 50% for the first, 50 to 75% for the second.

Compared with `OC[C@H]1O[C@]2(OCC[C@H]2/N=C\c2c(O)ccc3ccccc23)[C@H](O)[C@@H](n2cc(-c3cc(F)c(F)c(F)c3)nn2)[C@H]1O` [Compound A202, (4R,5S,7R,8R,9S,10R)-7-(hydroxymethyl)-4-((Z)-((2-hydroxynaphthalen-1-yl)methylene)amino)-9-(4-(3,4,5-trifluorophenyl)-1H-1,2,3-triazol-1-yl)-1,6-dioxaspiro[4.5]decane-8,10-diol], `OC[C@H]1O[C@]2(OCC[C@H]2/N=C\c2ccc3ccccc3c2O)[C@H](O)[C@@H](n2cc(-c3cc(F)c(F)c(F)c3)nn2)[C@H]1O` [Compound A203, (4R,5S,7R,8R,9S,10R)-7-(hydroxymethyl)-4-((Z)-((1-hydroxynaphthalen-2-yl)methylene)amino)-9-(4-(3,4,5-trifluorophenyl)-1H-1,2,3-triazol-1-yl)-1,6-dioxaspiro[4.5]decane-8,10-diol] is higher in inhibition at 20 µM: under 25% for the first, 25 to 50% for the second.

In the case of `OC[C@H]1O[C@]2(OCC[C@H]2Nc2ccccc2)[C@H](O)[C@@H](n2cc(-c3cc(F)c(F)c(F)c3)nn2)[C@H]1O` [Compound A206, (4R,5S,7R,8R,9S,10R)-7-(hydroxymethyl)-4-(phenylamino)-9-(4-(3,4,5-trifluorophenyl)-1H-1,2,3-triazol-1-yl)-1,6-dioxaspiro[4.5]decane-8,10-diol], the inhibition at 20 µM is reported as over 75%.

Same assay, conditions: Table 3, found values; compound at 20 μM; 60 nM his-galectin-3, 15 nM biotin-ASF; read-out: % Inhibitory activity (at 20 μM)

Compared with `OC[C@H]1O[C@@]2(CCCN(c3ccccc3)C2)[C@H](O)[C@@H](n2cc(-c3cc(F)c(F)c(F)c3)nn2)[C@H]1O` [Compound A191, (2R,3R,4S,5R,6R)-2-(hydroxymethyl)-8-phenyl-4-(4-(3,4,5-trifluorophenyl)-1H-1,2,3-triazol-1-yl)-1-oxa-8-azaspiro[5.5]undecane-3,5-diol], `O=C(N[C@@H]1CCO[C@]12O[C@H](CO)[C@H](O)[C@H](n1cc(-c3cc(F)c(F)c(F)c3)nn1)[C@H]2O)c1cnc2sccn12` [Compound A200, N-((4R,5S,7R,8R,9S,10R)-8,10-dihydroxy-7-(hydroxymethyl)-9-(4-(3,4,5-trifluorophenyl)-1H-1,2,3-triazol-1-yl)-1,6-dioxaspiro[4.5]decan-4-yl)imidazo[2,1-b]thiazole-5-carboxamide] is higher in inhibition at 20 µM: 24% for the first, 63.3% for the second.

Same assay, conditions: read-out: % Inhibitory activity (at 20 μM), Table 2; compound at 20 μM; 60 nM his-galectin-3, 15 nM biotin-ASF

`OC[C@H]1O[C@]2(OCC[C@H]2n2cc(-c3ccccc3Cl)nn2)[C@H](O)[C@@H](n2cc(-c3cc(F)c(F)c(F)c3)nn2)[C@H]1O` [Compound A204, (4R,5S,7R,8R,9S,10R)-4-(4-(2-chlorophenyl)-1H-1,2,3-triazol-1-yl)-7-(hydroxymethyl)-9-(4-(3,4,5-trifluorophenyl)-1H-1,2,3-triazol-1-yl)-1,6-dioxaspiro[4.5]decane-8,10-diol] and `OC[C@H]1O[C@]2(OCC[C@H]2n2cc(-c3cccc(Cl)c3)nn2)[C@H](O)[C@@H](n2cc(-c3cc(F)c(F)c(F)c3)nn2)[C@H]1O` [Compound A205, (4R,5S,7R,8R,9S,10R)-4-(4-(3-chlorophenyl)-1H-1,2,3-triazol-1-yl)-7-(hydroxymethyl)-9-(4-(3,4,5-trifluorophenyl)-1H-1,2,3-triazol-1-yl)-1,6-dioxaspiro[4.5]decane-8,10-diol] cannot be ordered by inhibition at 20 µM: under 25% for the first, under 25% for the second.

Reference: US20250026778A1 (TIUMBIO CO., LTD., priority 2021, published 2025)
